Patent US11345701B1, “KRAS mutant protein inhibitors” (Jacobio Pharmaceuticals Co., Ltd., priority 2021, dated 2022)

Legend:
[1] = tested on: NCI-H1373 (KRAS^G12C) xenograft; assay: Efficacy in NCI-H1373 (KRAS G12C) xenograft model; format: in vivo, BALB/c nude mice; conditions: 10 mg/kg, QD
Experimental: NCI-H1373 (KRAS^G12C) cells (5.0E+06 cells) were injected subcutaneously into the right flank of female BALB/c nude mice (6-8 weeks) in a mixture with PBS and Matrigel (Corning) (PBS/Matrigel=1:1(v/v)). Mice were monitored daily and caliper measurements began when tumors became visible. Tumor volume was calculated by measuring two perpendicular diameters using the formula: (L*W^2)/2 in which L and W refer to the length and width tumor diameter respectively. When the average tumor volume reached 150-200 mm^3, mice were grouped randomly (n=6/group) and treated with compounds. Tumor volume and mice weight was measured twice a week during treatment (˜ 3 weeks). Tumor growth inhibition rates were calculated by TGI %=(1−(Vt−Vt0)/(Vc−Vc0))*100%, wherein Vc and Vt are the mean tumor volume of control and treated groups at the end of the study respectively, and Vc0 and Vt0 are the mean tumor volume of control and treated groups at the start respectively. The results are in the following Table 7 and FIG. 1: […]

[2] = Dog pharmacokinetic study; format: in vivo, beagle dog; conditions: for CL / VSS / AUC0-24h / Cmax / Oral BA (F %): beagle dog; for CL / VSS: 1 mg/kg, iv; for AUC0-24h / Cmax / Oral BA (F %) / AUC0-24 h relative to the control compound Amg-510: 3 mg/kg, po
Experimental: The purpose of this study was to evaluate the pharmacokinetic properties of compounds in beagle dog following single dose administration. The day before administration, dogs were fasted overnight and free access to water. Four beagle dogs were needed for each compound and the four dogs were divided into two groups, group A and group B (one male(♂) and one female (♀) in each group). Dogs in group A were treated with a single 1 mg/kg dose of compound (iv). Dogs in group B were treated with a single 3 mg/kg dose of compound (po). For dogs in group A, blood samples were collected at pre-dose, and at the time point of 0.083, 0.25, 0.5, 1, 2, 4, 6, 8 and 24 h post-dose. For dogs in group B, blood samples were collected at pre-dose, and at the time point of 0.25, 0.5, 1, 2, 4, 6, 8 and 24 h post-dose. Blood samples were placed on ice until centrifugation to obtain plasma samples. The plasma samples were stored at −80° C. until analysis. The concentration of compound in plasma samples was determined using a LC-MS/MS method.

[3] = biological target: HIS-KRAS(G12C) (Homo sapiens (Human), UniProt P01116, G12C); assay: SOS1 catalyzed nucleotide exchange assay (TR-FRET); format: biochemical
HIS-KRAS(G12C), sequence (P01116 other isoform, or with tags, fused parts or gaps G12C): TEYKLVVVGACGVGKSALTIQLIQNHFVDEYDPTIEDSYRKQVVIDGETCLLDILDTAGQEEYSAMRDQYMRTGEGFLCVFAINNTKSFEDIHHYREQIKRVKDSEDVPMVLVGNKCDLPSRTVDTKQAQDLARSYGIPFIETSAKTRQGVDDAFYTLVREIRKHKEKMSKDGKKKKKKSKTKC
Experimental: TR-FRET signals were then read on Tecan Spark multimode microplate reader. […] TR-FRET ratios for each individual wells were calculated by equation: TR-FRET ratio=(Signal F515/Signal F486)*10000. Then the data were analyzed using a 4-parameter logistic model to calculate IC50 values.

[4] = Mouse pharmacokinetic study; format: in vivo, Balb/c mouse
Experimental: The purpose of this study was to evaluate the pharmacokinetic properties of compounds in Balb/c mouse (♀) following single dose administration. The day before administration, mice were fasted overnight and free access to water. Six mice were needed for each compound and the six mice were divided into two groups (n=3/group), group A and group B. Mice in group A were treated with a single 3 mg/kg dose of compound (iv). Mice in group B were treated with a single 10 mg/kg dose of compound (po). For each mouse in group A, blood samples were collected at pre-dose, and at the time point of 0.083, 0.25, 0.5, 1, 2, 4, 6, 8 and 24 h post-dose. For each mouse in group B, blood samples were collected at pre-dose, and at the time point of 0.25, 0.5, 1, 2, 3, 4, 6, 8 and 24 h post-dose. Blood samples were placed on ice until centrifugation to obtain plasma samples. The plasma samples were stored at −80° C. until analysis. The concentration of compound in plasma samples was determined using a LC-MS/MS method.

[5] = tested on: NCI-H358 cells expressing KRAS G12C mutant protein; assay: Phospho-ERK1/2(THR202/TYR204) HTRF assay; format: cell-based
Experimental: The NCI-H358 cells in culture medium were seeded in 96-well plates at a concentration of 40,000 cells/well and then put in a 37° C./5% CO2 cell incubator to incubate overnight. […] After 2 hours incubation in a 37° C./5% CO2 cell incubator, the assay medium in 96-well plates was removed, then 50 μL of 1× blocking reagent-supplemented lysis buffer (Cisbio) was added and the plates were incubated at 25° C. for 45 min with shaking. 10 μL of cell lysates from the 96-well plates were transferred to a 384-well plate (Greiner) containing 2.5 μL/well HTRF® pre-mixed antibodies (Cisbio 64AERPEH). Incubate 4 hours at 25° C. and then read HTRF signals on Tecan Spark multimode microplate reader. The data were analyzed using a 4-parameter logistic model to calculate IC50 values.

[6] = Balb/c mouse (female), 3 mg/kg, iv
[7] = Balb/c mouse (female), 10 mg/kg, po

Structure (SMILES): C=CC(=O)N1CCN(c2nc(=O)n(-c3c(C)ccnc3C(C)C)c3nc(-c4c(N)c(F)c(F)c(F)c4F)c(F)cc23)[C@@H](C)C1 (atropisomer, axis not shown; (M)) [Compound 2-1, (M)-4-((S)-4-acryloyl-2-methylpiperazin-1-yl)-7-(2-amino-3,4,5,6-tetrafluorophenyl)-6-fluoro-1-(2-isopropyl-4-methylpyridin-3-yl)pyrido[2,3-d]pyrimidin-2(1H)-one]
- Tumor response in words ([1]; Table 7 and FIG. 1): regression of the tumor has been observed
- Tumor volume at the end (Day 21) ([1]; female BALB/c nude mice, Day 21): 27 mm^3
- Tumor volume at the start ([1]; female BALB/c nude mice, baseline): 192 mm^3
- TGI % ([1]; female BALB/c nude mice, end of study (Day 21)): 110%
- Pharmacokinetic properties in words ([2]; beagle dog model, compared with Amg-510): excellent pharmacokinetic properties
- CL ([2]; female): 4.40 mL/min/kg
- VSS ([2]; female): 0.295 L/kg
- AUC0-24h ([2]; female): 5022 ng·h/mL
- Cmax ([2]; female): 2330 ng/mL
- Oral BA (F %) ([2]; female): 44.3%
- CL ([2]; male): 4.15 mL/min/kg
- VSS ([2]; male): 0.255 L/kg
- AUC0-24h ([2]; male): 7308 ng·h/mL
- Cmax ([2]; male): 4080 ng/mL
- Oral BA (F %) ([2]; male): 60.9%
- AUC0-24 h relative to the control compound Amg-510 ([2]; female beagle dog): more than 12 times
- AUC0-24 h relative to the control compound Amg-510 ([2]; male beagle dog): more than 3 times
- IC50 ([3]; GDP-loaded HIS-KRAS(G12C), 1 hour pre-incubation, TR-FRET): 1.19 nM
- Inhibitory activity relative to the control compound Amg-510 ([3]; SOS1 catalyzed nucleotide exchange assay): about 2 times
- CL [4, 6]: 38.9 mL/min/kg
- Vss [4, 6]: 1.28 L/kg
- AUC0-24h [4, 7]: 2618 ng·h/mL
- Cmax [4, 7]: 2440 ng/mL
- Oral BA (F %) [4, 7]: 58.9%
- Pharmacokinetic properties in words ([4]; mouse model, 3 mg/kg iv and 10 mg/kg po): good pharmacokinetic properties
- IC50 ([5]; 2 hours incubation, read-out: p-ERK IC50): 14.5 nM
- Inhibitory activity relative to the control compound Amg-510 ([5]; phospho-ERK1/2 HTRF assay): about 2 times
